Reference: patent US8741944B2, “Anti-infective agents against intracellular pathogens” (priority 2007, dated 2014)
Where two headings read alike, the source gives them in different places.

Key:
CCRF-CEM (Leukemia) = experiment: NCI DTP tumor cell line screen (SRB), CCRF-CEM
Protocol: (§1) For a typical screening experiment, cells are inoculated into 96 well microtiter plates in 100 μL at plating densities ranging from 5,000 to 40,000 cells/well depending on the doubling time of individual cell lines. After cell inoculation, the microtiter plates are incubated at 37° C., 5% CO2, 95% air and 100% relative humidity for 24 h prior to addition of experimental drugs.
(§2) After 24 h, two plates of each cell line are fixed in situ with TCA, to represent a measurement of the cell population for each cell line at the time of drug addition (Tz). Experimental drugs are solubilized in dimethyl sulfoxide at 400-fold the desired final maximum test concentration and stored frozen prior to use. At the time of drug addition, an aliquot of frozen concentrate is thawed and diluted to twice the desired final maximum test concentration with complete medium containing 50 μg/ml gentamicin. Additional four, 10-fold or ½ log serial dilutions are made to provide a total of five drug concentrations plus control. Aliquots of 100 μl of these different drug dilutions are added to the appropriate microtiter wells already containing 100 μl of medium, resulting in the required final drug concentrations.
(§3) Following drug addition, the plates are incubated for an additional 48 h at 37° C., 5% CO2, 95% air, and 100% relative humidity. For adherent cells, the assay is terminated by the addition of cold TCA. Cells are fixed in situ by the gentle addition of 50 μl of cold 50% (w/v) TCA (final concentration, 10% TCA) and incubated for 60 minutes at 4° C. The supernatant is discarded, and the plates are washed five times with tap water and air dried. Sulforhodamine B (SRB) solution (1001) at 0.4% (w/v) in 1% acetic acid is added to each well, and plates are incubated for 10 minutes at room temperature. After staining, unbound dye is removed by washing five times with 1% acetic acid and the plates are air dried. Bound stain is subsequently solubilized with 10 mM trizma base, and the absorbance is read on an automated plate reader at a wavelength of 515 nm. For suspension cells, the methodology is the same except that the assay is terminated by fixing settled cells at the bottom of the wells by gently adding 50 μl of 80% TCA (final concentration, 16% TCA). Using the seven absorbance measurements [time zero, (Tz), control growth, (C), and test growth in the presence of drug at the five concentration levels (Ti)], the percentage growth is calculated at each of the drug concentrations levels. Percentage growth inhibition is calculated as: [(Ti−Tz)/(C−Tz)]×100 for concentrations for which Ti>/=Tz [(Ti−Tz)/Tz]×100 for concentrations for which Ti<Tz
(§4) Three dose response parameters are calculated for each experimental agent. […] The drug concentration resulting in total growth inhibition (TGI) is calculated from Ti=Tz. […] Values are calculated for each of these three parameters if the level of activity is reached; however, if the effect is not reached or is exceeded, the value for that parameter is expressed as greater or less than the maximum or minimum concentration tested.

[1] = system: HOP-62 (Non-Small Cell Lung Cancer); experiment: NCI DTP tumor cell line screen (SRB), HOP-62
Protocol: as §1, §2, §3, §4

OVCAR-5 (Ovarian Cancer) = experiment: NCI DTP tumor cell line screen (SRB), OVCAR-5
Protocol: as §1, §2, §3, §4

CAKI-1 (Renal Cancer) = experiment: NCI DTP tumor cell line screen (SRB), CAKI-1
Protocol: as §1, §2, §3, §4

PC-3 (Prostate Cancer) = experiment: NCI DTP tumor cell line screen (SRB), PC-3
Protocol: as §1, §2, §3, §4

T-47D (Breast Cancer) = experiment: NCI DTP tumor cell line screen (SRB), T-47D
Protocol: as §1, §2, §3, §4

UO-31 (Renal Cancer) = experiment: NCI DTP tumor cell line screen (SRB), UO-31
Protocol: as §1, §2, §3, §4

[2] = system: NCI-H522 (Non-Small Cell Lung Cancer)
Protocol: as §1, §2, §3, §4

KM12 (Colon Cancer) = experiment: NCI DTP tumor cell line screen (SRB), KM12
Protocol: as §1, §2, §3, §4

COLO 205 (Colon Cancer) = experiment: NCI DTP tumor cell line screen (SRB), COLO 205
Protocol: as §1, §2, §3, §4

SK-MEL-5 (Melanoma) = experiment: NCI DTP tumor cell line screen (SRB), SK-MEL-5
Protocol: as §1, §2, §3, §4

MOLT-4 (Leukemia) = experiment: NCI DTP tumor cell line screen (SRB), MOLT-4
Protocol: as §1, §2, §3, §4

[3] = system: MDA-MB-435 (Breast Cancer); experiment: NCI DTP tumor cell line screen (SRB), MDA-MB-435
Protocol: as §1, §2, §3, §4

IGROV1 (Ovarian Cancer) = experiment: NCI DTP tumor cell line screen (SRB), IGROV1
Protocol: as §1, §2, §3, §4

OVCAR-4 (Ovarian Cancer) = experiment: NCI DTP tumor cell line screen (SRB), OVCAR-4
Protocol: as §1, §2, §3, §4

MALME-3M (Melanoma) = experiment: NCI DTP tumor cell line screen (SRB), MALME-3M
Protocol: as §1, §2, §3, §4

## 4-[5-(2-Phenanthrenyl)-3-(trifluoromethyl)-1H-pyrazol-1-yl]-phenyl -guanidine [Compound 71]
CCRF-CEM (Leukemia)
  GI50: 1230 nM
  TGI: 2.48E−06
CCRF-CEM (Leukemia); Log10 Concentration −4.0
  Percent Growth: −53%
CCRF-CEM (Leukemia); Log10 Concentration −5.0
  Percent Growth: −99%
CCRF-CEM (Leukemia); Log10 Concentration −6.0
  Percent Growth: 65%
CCRF-CEM (Leukemia); Log10 Concentration −7.0
  Percent Growth: 79%
CCRF-CEM (Leukemia); Log10 Concentration −8.0
  Percent Growth: 78%
[1]
  GI50: 1720 nM
[1]; Log10 Concentration −4.0
  Percent Growth: −36%
[1]; Log10 Concentration −5.0
  Percent Growth: −98%
[1]; Log10 Concentration −7.0
  Percent Growth: 97%
[1]; Log10 Concentration −8.0
  Percent Growth: 100%
OVCAR-5 (Ovarian Cancer)
  GI50: 1730 nM
  TGI: 3.11E−06
OVCAR-5 (Ovarian Cancer); Log10 Concentration −4.0
  Percent Growth: −8%
OVCAR-5 (Ovarian Cancer); Log10 Concentration −5.0
  Percent Growth: −100%
OVCAR-5 (Ovarian Cancer); Log10 Concentration −6.0
  Percent Growth: 97%
OVCAR-5 (Ovarian Cancer); Log10 Concentration −8.0
  Percent Growth: 95%
CAKI-1 (Renal Cancer)
  GI50: 1830 nM
  TGI: 3.22E−06
CAKI-1 (Renal Cancer); Log10 Concentration −4.0
  Percent Growth: −47%
CAKI-1 (Renal Cancer); Log10 Concentration −5.0
  Percent Growth: −100%
CAKI-1 (Renal Cancer); Log10 Concentration −6.0
  Percent Growth: 103%
CAKI-1 (Renal Cancer); Log10 Concentration −8.0
  Percent Growth: 97%
PC-3 (Prostate Cancer)
  GI50: 1380 nM
  TGI: 2.67E−06
PC-3 (Prostate Cancer); Log10 Concentration −5.0
  Percent Growth: −100%
PC-3 (Prostate Cancer); Log10 Concentration −6.0
  Percent Growth: 75%
PC-3 (Prostate Cancer); Log10 Concentration −7.0
  Percent Growth: 73%
PC-3 (Prostate Cancer); Log10 Concentration −8.0
  Percent Growth: 75%
T-47D (Breast Cancer)
  GI50: < 10 nM
  TGI: 1.98E−06
T-47D (Breast Cancer); Log10 Concentration −4.0
  Percent Growth: −53%
T-47D (Breast Cancer); Log10 Concentration −5.0
  Percent Growth: −76%
T-47D (Breast Cancer); Log10 Concentration −6.0
  Percent Growth: 32%
T-47D (Breast Cancer); Log10 Concentration −7.0
  Percent Growth: 47%
T-47D (Breast Cancer); Log10 Concentration −8.0
  Percent Growth: 36%
UO-31 (Renal Cancer)
  GI50: 1570 nM
  TGI: 2.92E−06
UO-31 (Renal Cancer); Log10 Concentration −4.0
  Percent Growth: −35%
UO-31 (Renal Cancer); Log10 Concentration −5.0
  Percent Growth: −100%
UO-31 (Renal Cancer); Log10 Concentration −7.0
  Percent Growth: 94%
UO-31 (Renal Cancer); Log10 Concentration −8.0
  Percent Growth: 91%
[2]
  GI50: 1450 nM
  TGI: 2.82E−06
[2]; Log10 Concentration −4.0
  Percent Growth: −43%
[2]; Log10 Concentration −5.0
  Percent Growth: −95%
[2]; Log10 Concentration −6.0
  Percent Growth: 78%
[2]; Log10 Concentration −8.0
  Percent Growth: 82%
KM12 (Colon Cancer)
  GI50: 1590 nM
  TGI: 2.97E−06
KM12 (Colon Cancer); Log10 Concentration −4.0
  Percent Growth: −43%
KM12 (Colon Cancer); Log10 Concentration −5.0
  Percent Growth: −98%
KM12 (Colon Cancer); Log10 Concentration −7.0
  Percent Growth: 91%
KM12 (Colon Cancer); Log10 Concentration −8.0
  Percent Growth: 94%
COLO 205 (Colon Cancer)
  GI50: 1360 nM
  TGI: 2.69E−06
COLO 205 (Colon Cancer); Log10 Concentration −4.0
  Percent Growth: −32%
COLO 205 (Colon Cancer); Log10 Concentration −6.0
  Percent Growth: 73%
COLO 205 (Colon Cancer); Log10 Concentration −7.0
  Percent Growth: 83%
COLO 205 (Colon Cancer); Log10 Concentration −8.0
  Percent Growth: 95%
SK-MEL-5 (Melanoma)
  GI50: 2220 nM
  TGI: 4.07E−06
SK-MEL-5 (Melanoma); Log10 Concentration −4.0
  Percent Growth: −34%
SK-MEL-5 (Melanoma); Log10 Concentration −6.0
  Percent Growth: 116%
SK-MEL-5 (Melanoma); Log10 Concentration −7.0
  Percent Growth: 111%
SK-MEL-5 (Melanoma); Log10 Concentration −8.0
  Percent Growth: 97%
MOLT-4 (Leukemia)
  GI50: 233 nM
  TGI: 1.98E−06
MOLT-4 (Leukemia); Log10 Concentration −6.0
  Percent Growth: 23%
MOLT-4 (Leukemia); Log10 Concentration −7.0
  Percent Growth: 66%
[3]
  GI50: 1700 nM
  TGI: 3.07E−06
[3]; Log10 Concentration −4.0
  Percent Growth: −27%
[3]; Log10 Concentration −5.0
  Percent Growth: −100%
[3]; Log10 Concentration −6.0
  Percent Growth: 95%
IGROV1 (Ovarian Cancer)
  GI50: 1070 nM
  TGI: 2.26E−06
IGROV1 (Ovarian Cancer); Log10 Concentration −4.0
  Percent Growth: −53%
IGROV1 (Ovarian Cancer); Log10 Concentration −5.0
  Percent Growth: −100%
IGROV1 (Ovarian Cancer); Log10 Concentration −6.0
  Percent Growth: 55%
IGROV1 (Ovarian Cancer); Log10 Concentration −7.0
  Percent Growth: 83%
IGROV1 (Ovarian Cancer); Log10 Concentration −8.0
  Percent Growth: 85%
OVCAR-4 (Ovarian Cancer)
  GI50: 1310 nM
  TGI: 2.58E−06
OVCAR-4 (Ovarian Cancer); Log10 Concentration −4.0
  Percent Growth: −66%
OVCAR-4 (Ovarian Cancer); Log10 Concentration −5.0
  Percent Growth: −100%
OVCAR-4 (Ovarian Cancer); Log10 Concentration −6.0
  Percent Growth: 70%
OVCAR-4 (Ovarian Cancer); Log10 Concentration −7.0
  Percent Growth: 79%
MALME-3M (Melanoma)
  GI50: 1010 nM
  TGI: 2.33E−06
MALME-3M (Melanoma); Log10 Concentration −4.0
  Percent Growth: −50%
MALME-3M (Melanoma); Log10 Concentration −6.0
  Percent Growth: 50%
MALME-3M (Melanoma); Log10 Concentration −8.0
  Percent Growth: 52%
